Results: patent US20250188422A1, “INDUCED TOTIPOTENT POTENTIAL STEM CELLS, METHODS OF MAKING AND USING” (Peking University, priority 2022, published 2025)

Tests used:
[1] = tested on: Zscan4-Emerald GFP and MERVL-tdTomato reporter expression in mouse EPS cells; test: Screen with Zscan4-Emerald GFP and MERVL-tdTomato reporter EPS cells; assay type: cell-based; settings: for effect with CD1530 in inducing totipotent markers: combined with CD1530, EPS reporter cells, day 3
Method: Cells were gently digested into single cells using 0.05% trypsin-EDTA. Suspensions were filtered through a 40 µm cell strainer. Then, the samples were analyzed on CytoFLEX (Beckman Coulter). Data analysis was performed using CytExpert software.
To identify small molecules that can induce totipotent features in mouse EPS cells, we used cell lines carrying a MERVL-TdTomato or a Zscan4-Emerald GFP reporter. As the positive control, Dux overexpression was performed in these reporter cells (FIG. 6a-c). N2B27 medium was used for screening and Wnt signaling agonist CHIR 99021 was also added for promoting cell proliferation. In the primary screen, we focused on identifying small molecules that can increase the percentage of Zscan4-Emerald GFP+ cells, and identified more than 50 primary hits. These candidates were further evaluated using MERVL-tdTomato reporter cells and small molecules that can also induce MERVL-tdTomato were selected out for further determining their optimal dosage in activating Zscan4-Emerald and MERVL-tdTomato expression without inducing significant toxicity. […] Therefore, CHIR 99021 was included in the chemical cocktail.

[2] = tested on: EPS cells during TPS conversion; test: Cell proliferation during conversion of EPS cells to TPS cells; assay type: cell-based, mouse; settings: CHIR 99021 omitted from the cocktail during the conversion
Method: Mouse EPS cells and ES cells cultured in N2B27-LCDM medium or N2B27-2i/LIF medium for two days were used for TPS generation. Mouse EPS cells and ES cells were washed with DMEM/F12, then 0.05% trypsin-EDTA (Gibco, 25300-062) was added and incubated for 3 min, then DMEM (Gibco, 11965092) supplemented with 10% FBS (Hyclone, SH30070.03) was added. The cells were pipetted up and down several times into single cells. Cells were centrifuged and re-suspended in 4S medium contained N2B27 which promoted cell proliferation or RPMI Medium 1640 basic (Gibco, 22400-089) which enhanced totipotent molecular features supplemented with 5% knockout serum replacement (Gibco, 10828-028), 0.2% sodium pyruvate (Gibco, 11360-070), 0.14% sodium DL-lactate solution (Sigma, L7900) and 0.1% Chemically Defined Lipid Concentrate (Gibco, 11905-031), VPA (50 μM; Selleck, S3944), CHIR-99021, EPZ004777 (1 μM, Selleck, S7353) and CD1530 ([…]-0.5 μM; Tocris, 2554). […]
To identify small molecules that can induce totipotent features in mouse EPS cells, we used cell lines carrying a MERVL-TdTomato or a Zscan4-Emerald GFP reporter. […] These candidates were further evaluated using MERVL-tdTomato reporter cells and small molecules that can also induce MERVL-tdTomato were selected out for further determining their optimal dosage in activating Zscan4-Emerald and MERVL-tdTomato expression without inducing significant toxicity. […]

[3] = tested on: TPS cells; test: Culture of TPS cells without CHIR 99021; assay type: cell-based, mouse
Method: All cell lines were cultured under 20% 02 and 5% C02 at 37° C. Mouse TPS cells were cultured in 4S medium contained N2B27 basal medium [50% DMEM/F12 (Gibco, 11330-032), 50% Neurobasal (Gibco, 21103-049), 0.5% N2 supplement (Gibco, 17502-048), 1% B27 supplement (Gibco, 12587-010), 1% GlutaMAX (Gibco, 35050-061), 1% nonessential amino acids (Gibco, 11140-050)] which promoted cell proliferation, or 1640 basal medium [RPMI Medium 1640 basic (Gibco, 22400-089), 0.5% N2 supplement (Gibco, 17502-048), 1% B27 supplement (Gibco, 12587-010), 1% GlutaMAX (Gibco, 35050-061), 1% nonessential amino acids (Gibco, 11140-050)] which enhanced totipotent molecular features, supplemented with 5% knockout serum replacement (Gibco, 10828-028), 0.2% sodium pyruvate (Gibco, 11360-070), 0.14% sodium DL-lactate solution (Sigma, L7900) and 0.1% Chemically Defined Lipid Concentrate (Gibco, 11905-031), VPA (50 μM; Selleck, S3944), CHIR-99021 (3 μM; Selleck, S1263), EPZ004777 (1 μM, Selleck, S7353) and CD1530 ([…]-0.5 μM; Tocris, 2554). Mouse TPS cells were cultured on mitomycin C inactivated mouse embryonic fibroblast cells (feeders, 3*10^4 cells per cm^2). The culture medium was changed every day. TPS cells were passaged every three days with 0.05% trypsin-EDTA (Gibco, 25300-062) and seeded at a split ratio ranging from 1:3 to 1:10. To generate TPS cells, EPS cells or ES cells were dissociated and cultured on feeders in 4S medium for the first three passages, EPS cells or ES cells need to seed at a lower split ratio 1:3 to improve cell viability. After five passages, TPS cells were generated for further experiments.
The total RNAs were isolated using the Direct-zol RNA Kits (ZYMO Research, R2052). RNA was converted to cDNA using TransScript FirstStrand cDNA Synthesis SuperMix (TransGen Biotech, AT311). Quantitative PCR analysis was conducted using the KAPA SYBR FAST qPCR Kit (KAPA Biosystems, KK4601) with the Bio RAD CFX Connect Real-Time System. The data were analyzed using the delta-delta CT method.
Next, we sought to analyze the role of CHIR 99021 in the induction and maintenance of TPS cells. […]

[4] = tested on: 8-cell ICR diploid mouse embryos; test: Chimeric assay of single-cell microinjection into 8-cell embryos; assay type: in vivo; settings: omission of CHIR 99021
Method: Cells were digested by 0.05% trypsin-EDTA, and the digested cells were filtered through a 40 µm cell strainer, centrifuged at 1,200-1,500 rpm for 3 min at room temperature. Supernatant were removed and cells were suspended using culture medium with the addition of Y-27632 (10 μM; Tocris, 1254), and placed on the ice before injection. After being placed on ice, the digested cells should be injected in 1 h, otherwise, another batch of cells were digested for the remaining injections.
Single cells were microinjected into 8-cell ICR diploid mouse embryos. The injected embryos were cultured in the culture medium with Y-27632 (10 μM; Tocris, 1254) for the first 4 h. For the generation of chimeric blastocysts, the embryos were transferred into the KSOM medium (Merck, MR-106-D). For the generation of single-cell derived in vivo chimeric conceptuses, chimeric embryos were cultured into KSOM medium with Y-27632 (10 μM; Tocris, 1254) addition in a humidified incubator under 5% CO2 at 37° C. overnight. Injected embryos were transferred to uterine horns of 0.5 post coitum pseudo-pregnant females. Fetal tissues, yolk sacs, placentas were dissected from conceptuses at E7.5, E10.5, E13.5 or E17.5 developmental stages.

**Q.** Which “inducing Zscan4-GFP and MERVL-tdTomato expression” value ([1]; EPS reporter cells, N2B27 medium with CHIR 99021, after titration, compared with other screening hits) does the source give for `O=C(O)c1ccc(-c2ccc3cc(O)c(C45CC6CC(CC(C6)C4)C5)cc3c2)cc1` [CD1530] here?
**A.** Its value is “most effective”.

**Q.** Which results are given for `Cc1c[nH]c(-c2cnc(NCCNc3ccc(C#N)cn3)nc2-c2ccc(Cl)cc2Cl)n1` [CHIR 99021]?
**A.** cell proliferation [2]: greatly reduced; requirement for the proliferation of TPS cells ([3]; omission of CHIR 99021, after further passaging): not required; expression of totipotent marker genes in TPS cells ([3]; omission of CHIR 99021, after long-term culturing): not affected; proliferation of TPS cells ([3]; omission of CHIR 99021, first few passages (about 3-5 passages)): reduced proliferation; in vivo chimeric of TPS cells [4]: greatly reduce

**Q.** Which “effect with CD1530 in inducing totipotent markers” value [1] does the source give for `CC(C)N(CCCNC(=O)Nc1ccc(C(C)(C)C)cc1)C[C@H]1O[C@@H](n2ccc3c(N)ncnc32)[C@H](O)[C@@H]1O` [EPZ004777] here?
**A.** Its value is “synergistic effect”.

**Q.** With `CCCC(CCC)C(=O)O` [VPA] as the compound, how does the “effect with CD1530 in inducing totipotent markers” value [1] read?
**A.** The value was “synergistic effect”.
